Laboratory results as given in US20210045385A1, “PYRIDAZINONE-SUBSTITUTED KETOXIMES AS HERBICIDES” (FMC Corporation, priority 2018, published 2021).

Key:
Format in all cases: in vivo
[1] = tested on: Italian ryegrass (Lolium mutiflorum); test: Test C preemergence, visual plant response rating; conditions: Test C, 0 is no effect, 100 is complete control
Summary of the method: (§1)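 Compounds in a non-phytotoxic solvent with surfactant were applied as a directed soil spray preemergence or to 2–10 cm, one- to two-leaf plants postemergence, in loam–sand soil. After about 10 d in a greenhouse, injury was visually rated against untreated controls on a 0–100 scale (100 = complete control).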

[2] = tested on: barnyardgrass (Echinochloa crus-galli); test: Test C preemergence, visual plant response rating; conditions: Test C, 0 is no effect, 100 is complete control
Summary of the method: as §1

[3] = tested on: foxtail, giant (giant foxtail, Setaria faberi); test: Test C preemergence, visual plant response rating; conditions: Test C, 0 is no effect, 100 is complete control
Summary of the method: as §1

kochia (Bassia scoparia) [4] = test: Test C preemergence, visual plant response rating; conditions: Test C, 0 is no effect, 100 is complete control
Summary of the method: as §1

[5] = tested on: pigweed (Amaranthus retroflexus); test: Test C preemergence, visual plant response rating; conditions: Test C, 0 is no effect, 100 is complete control
Summary of the method: as §1

[6] = tested on: ragweed (common ragweed, Ambrosia artemisiifolia); test: Test C preemergence, visual plant response rating; conditions: Test C, 0 is no effect, 100 is complete control
Summary of the method: as §1

[7] = tested on: Italian ryegrass (Lolium mutiflorum); test: Test C postemergence, visual plant response rating
Summary of the method: as §1

[8] = tested on: barnyardgrass (Echinochloa crus-galli); test: Test C postemergence, visual plant response rating
Summary of the method: as §1

[9] = tested on: blackgrass (Alopecurus myosuroides); test: Test C postemergence, visual plant response rating
Summary of the method: as §1

corn (Zea mays) = test: Test C postemergence, visual plant response rating
Summary of the method: as §1

[10] = tested on: foxtail, giant (giant foxtail, Setaria faberi); test: Test C postemergence, visual plant response rating
Summary of the method: as §1

[11] = tested on: galium (catchweed bedstraw, Galium aparine); test: Test C postemergence, visual plant response rating
Summary of the method: as §1

kochia (Bassia scoparia) [12] = test: Test C postemergence, visual plant response rating
Summary of the method: as §1

[13] = tested on: pigweed (Amaranthus retroflexus); test: Test C postemergence, visual plant response rating
Summary of the method: as §1

[14] = tested on: ragweed (common ragweed, Ambrosia artemisiifolia); test: Test C postemergence, visual plant response rating
Summary of the method: as §1

[15] = tested on: wheat (Triticum aestivum); test: Test C postemergence, visual plant response rating
Summary of the method: as §1

[16] = tested on: barnyardgrass (Echinochloa crus-galli); test: Test D flooded paddy test, visual plant response rating; conditions: 250 g ai/ha, scale 0 to 100 (0 no effect, 100 complete control), 13 to 15 d
Summary of the method: (§2)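 Plants were grown to the 2-leaf stage, pots flooded to 3 cm above soil, and compound applied directly into the paddy water, with the depth held throughout. After 13 to 15 d in a greenhouse, response was rated visually against untreated controls on a 0–100 scale (0 no effect, 100 complete control).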

[17] = tested on: duck salad (Heteranthera limosa); test: as above; conditions: 250 g ai/ha, scale 0 to 100 (0 no effect, 100 complete control), 13 to 15 d
Summary of the method: as §2

rice (Oryza sativa) = test: as above; conditions: 250 g ai/ha, scale 0 to 100 (0 no effect, 100 complete control), 13 to 15 d
Summary of the method: as §2

[18] = tested on: sedge umbrella (small-flower umbrella sedge, Cyperus difformis); test: as above; conditions: 250 g ai/ha, scale 0 to 100 (0 no effect, 100 complete control), 13 to 15 d
Summary of the method: as §2

[19] = Test C, postemergence, 125 g ai/ha

| Compound | Ryegrass, Italian plant response rating (0 to 100 scale) ([1]; 31 g ai/ha) | Ryegrass, Italian plant response rating (0 to 100 scale) ([1]; 125 g ai/ha) | Barnyardgrass plant response rating (0 to 100 scale) ([2]; 31 g ai/ha) | Barnyardgrass plant response rating (0 to 100 scale) ([2]; 125 g ai/ha) | Foxtail, Giant plant response rating (0 to 100 scale) ([3]; 31 g ai/ha) | Foxtail, Giant plant response rating (0 to 100 scale) ([3]; 125 g ai/ha) | Kochia plant response rating (0 to 100 scale) (kochia (Bassia scoparia) [4]; 31 g ai/ha) | Kochia plant response rating (0 to 100 scale) (kochia (Bassia scoparia) [4]; 125 g ai/ha) | Pigweed plant response rating (0 to 100 scale) ([5]; 31 g ai/ha) | Pigweed plant response rating (0 to 100 scale) ([5]; 125 g ai/ha) | Ragweed plant response rating (0 to 100 scale) ([6]; 31 g ai/ha) | Ragweed plant response rating (0 to 100 scale) ([6]; 125 g ai/ha) | Ryegrass, Italian plant response rating (0 to 100 scale) ([7]; Postemergence, 31 g ai/ha) | Ryegrass, Italian plant response rating (0 to 100 scale) [7, 19] | Barnyardgrass plant response rating (0 to 100 scale) ([8]; Postemergence, 31 g ai/ha) | Barnyardgrass plant response rating (0 to 100 scale) [8, 19] | Blackgrass plant response rating (0 to 100 scale) ([9]; Postemergence, 31 g ai/ha) | Blackgrass plant response rating (0 to 100 scale) [9, 19] | Corn plant response rating (0 to 100 scale) (corn (Zea mays); Postemergence, 31 g ai/ha) | Corn plant response rating (0 to 100 scale) (corn (Zea mays); [19]) | other results |
| --- | --- | --- | --- | --- | --- | --- | --- | --- | --- | --- | --- | --- | --- | --- | --- | --- | --- | --- | --- | --- | --- |
| CO/N=C(/c1cccc(/C=C/Cl)c1)c1c(O)c(C)nn(C)c1=O [Compound 285] | 0 | 10 | 0 | 0 | 0 | 0 | 0 | 0 | 0 | 0 | 0 | 10 | 0 | 0 | 20 | 30 | 0 | 10 | 0 | 0 | Foxtail, Giant plant response rating (0 to 100 scale) ([10]; Postemergence, 31 g ai/ha): 10; Foxtail, Giant plant response rating (0 to 100 scale) [10, 19]: 20; Galium plant response rating (0 to 100 scale) ([11]; Postemergence, 31 g ai/ha): 50; Galium plant response rating (0 to 100 scale) [11, 19]: 60; Kochia plant response rating (0 to 100 scale) (kochia (Bassia scoparia) [12]; Postemergence, 31 g ai/ha): 10; Kochia plant response rating (0 to 100 scale) (kochia (Bassia scoparia) [12]; [19]): 20; Pigweed plant response rating (0 to 100 scale) ([13]; Postemergence, 31 g ai/ha): 0; Pigweed plant response rating (0 to 100 scale) [13, 19]: 70; Ragweed plant response rating (0 to 100 scale) ([14]; Postemergence, 31 g ai/ha): 30; Ragweed plant response rating (0 to 100 scale) [14, 19]: 60; Wheat plant response rating (0 to 100 scale) ([15]; Postemergence, 31 g ai/ha): 0; Wheat plant response rating (0 to 100 scale) [15, 19]: 0; Plant response rating, Barnyardgrass (Flood) [16]: 0; Plant response rating, Ducksalad (Flood) [17]: 0; Plant response rating, Rice (Flood) (rice (Oryza sativa)): 0; Plant response rating, Sedge, Umbrella (Flood) [18]: 0 |
| CO/N=C(\c1cccc(/C=C/Cl)c1)c1c(O)c(C)nn(C)c1=O [Compound 286] | 0 | 10 | 60 | 90 | 0 | 50 | 0 | 0 | 0 | 10 | 0 | 20 | 0 | 0 | 0 | 30 | 20 | 0 | 0 | 0 | Foxtail, Giant plant response rating (0 to 100 scale) ([10]; Postemergence, 31 g ai/ha): 0; Foxtail, Giant plant response rating (0 to 100 scale) [10, 19]: 20; Galium plant response rating (0 to 100 scale) ([11]; Postemergence, 31 g ai/ha): 50; Galium plant response rating (0 to 100 scale) [11, 19]: 60; Kochia plant response rating (0 to 100 scale) (kochia (Bassia scoparia) [12]; Postemergence, 31 g ai/ha): 10; Kochia plant response rating (0 to 100 scale) (kochia (Bassia scoparia) [12]; [19]): 30; Pigweed plant response rating (0 to 100 scale) ([13]; Postemergence, 31 g ai/ha): 20; Pigweed plant response rating (0 to 100 scale) [13, 19]: 50; Ragweed plant response rating (0 to 100 scale) ([14]; Postemergence, 31 g ai/ha): 30; Ragweed plant response rating (0 to 100 scale) [14, 19]: 50; Wheat plant response rating (0 to 100 scale) ([15]; Postemergence, 31 g ai/ha): 30; Wheat plant response rating (0 to 100 scale) [15, 19]: 30; Plant response rating, Barnyardgrass (Flood) [16]: 0; Plant response rating, Ducksalad (Flood) [17]: 0; Plant response rating, Rice (Flood) (rice (Oryza sativa)): 0; Plant response rating, Sedge, Umbrella (Flood) [18]: 0 |
| CO/N=C(/c1cccc(/C=C\Cl)c1)c1c(O)c(C)nn(C)c1=O [Compound 287] | 50 | 90 | 40 | 90 | 10 | 40 | 0 | 0 | 0 | 0 | 0 | 20 | 20 | 80 | 0 | 60 | 10 | 30 | 0 | 10 | Foxtail, Giant plant response rating (0 to 100 scale) ([10]; Postemergence, 31 g ai/ha): 10; Foxtail, Giant plant response rating (0 to 100 scale) [10, 19]: 70; Galium plant response rating (0 to 100 scale) ([11]; Postemergence, 31 g ai/ha): 50; Galium plant response rating (0 to 100 scale) [11, 19]: 70; Kochia plant response rating (0 to 100 scale) (kochia (Bassia scoparia) [12]; Postemergence, 31 g ai/ha): 0; Kochia plant response rating (0 to 100 scale) (kochia (Bassia scoparia) [12]; [19]): 10; Pigweed plant response rating (0 to 100 scale) ([13]; Postemergence, 31 g ai/ha): 10; Pigweed plant response rating (0 to 100 scale) [13, 19]: 20; Ragweed plant response rating (0 to 100 scale) ([14]; Postemergence, 31 g ai/ha): 20; Ragweed plant response rating (0 to 100 scale) [14, 19]: 50; Wheat plant response rating (0 to 100 scale) ([15]; Postemergence, 31 g ai/ha): 0; Wheat plant response rating (0 to 100 scale) [15, 19]: 0; Plant response rating, Barnyardgrass (Flood) [16]: 0; Plant response rating, Ducksalad (Flood) [17]: 0; Plant response rating, Rice (Flood) (rice (Oryza sativa)): 0; Plant response rating, Sedge, Umbrella (Flood) [18]: 0 |
| CO/N=C(\c1cccc(/C=C\Cl)c1)c1c(O)c(C)nn(C)c1=O [Compound 288] | 70 | 100 | 70 | 100 | 40 | 100 | 0 | 30 | 0 | 0 | 10 | 20 | 40 | 100 | 70 | 100 | 40 | 40 | 10 | 20 | Foxtail, Giant plant response rating (0 to 100 scale) ([10]; Postemergence, 31 g ai/ha): 80; Foxtail, Giant plant response rating (0 to 100 scale) [10, 19]: 90; Galium plant response rating (0 to 100 scale) ([11]; Postemergence, 31 g ai/ha): 60; Galium plant response rating (0 to 100 scale) [11, 19]: 80; Kochia plant response rating (0 to 100 scale) (kochia (Bassia scoparia) [12]; Postemergence, 31 g ai/ha): 10; Kochia plant response rating (0 to 100 scale) (kochia (Bassia scoparia) [12]; [19]): 30; Pigweed plant response rating (0 to 100 scale) ([13]; Postemergence, 31 g ai/ha): 0; Pigweed plant response rating (0 to 100 scale) [13, 19]: 30; Ragweed plant response rating (0 to 100 scale) ([14]; Postemergence, 31 g ai/ha): 30; Ragweed plant response rating (0 to 100 scale) [14, 19]: 60; Wheat plant response rating (0 to 100 scale) ([15]; Postemergence, 31 g ai/ha): 0; Wheat plant response rating (0 to 100 scale) [15, 19]: 0; Plant response rating, Barnyardgrass (Flood) [16]: 0; Plant response rating, Ducksalad (Flood) [17]: 0; Plant response rating, Rice (Flood) (rice (Oryza sativa)): 0; Plant response rating, Sedge, Umbrella (Flood) [18]: 0 |
